Reference: ChEMBL document CHEMBL4610120, “New Broad-Spectrum Antibiotics Containing a Pyrrolobenzodiazepine Ring with Activity against Multidrug-Resistant Gram-Negative Bacteria” (J Med Chem, 2020)
≈ marks a conversion by molar mass, not a printed value.

Key:
Staphylococcus aureus = experiment: Antibacterial activity against methicillin resistant Staphylococcus aureus NCTC 13277 by microdilution broth method; assay type: functional
Pseudomonas aeruginosa [1] = experiment: Antimicrobial activity against multidrug-resistant Pseudomonas aeruginosa NCTC 13437 in presence of efflux pump inhibitor CCCP by microdilution broth method; assay type: functional
Pseudomonas aeruginosa [2] = experiment: Antimicrobial activity against Pseudomonas aeruginosa PAO1 in presence of efflux pump inhibitor PAbetaN by microdilution broth method; assay type: functional
Acinetobacter baylyi = experiment: Antimicrobial activity against multidrug-resistant Acinetobacter baylyi ADP1 by microdilution broth method; assay type: functional
Escherichia coli [3] = experiment: Antimicrobial activity against multidrug-resistant Escherichia coli NCTC 12923 by microdilution broth method; assay type: functional
Klebsiella pneumoniae [4] = experiment: Antimicrobial activity against multidrug-resistant Klebsiella pneumoniae NCTC 13438 in presence of efflux pump inhibitor PAbetaN by microdilution broth method; assay type: functional
[5] = Antimicrobial activity against multidrug-resistant Burkholderia cepacia complex LMG 17997 by microdilution broth method; assay type: functional
[6] = Selectivity ratio of cytotoxicity against human WI38 cells to MIC for multidrug-resistant Pseudomonas aeruginosa NCTC 13437; assay type: toxicity, cell-based
Escherichia coli [7] = experiment: Antimicrobial activity against multidrug-resistant Escherichia coli CFI_033_NDM by microdilution broth method; assay type: functional
[8] = Selectivity ratio of cytotoxicity against human WI38 cells to MIC for vancomycin resistant Enterococcus faecalis NCTC 12201; assay type: toxicity, cell-based
[9] = target: T1, LexA repressor (Escherichia coli) (UniProt P0A7C2); experiment: Induction of Escherichia coli K12 MG1655 lexA promotor measured at 30 mins interval for 20 hrs by fluorescence assay relative to control; details: Escherichia coli str. K-12 substr. MG1655
T1 sequence (whole entry): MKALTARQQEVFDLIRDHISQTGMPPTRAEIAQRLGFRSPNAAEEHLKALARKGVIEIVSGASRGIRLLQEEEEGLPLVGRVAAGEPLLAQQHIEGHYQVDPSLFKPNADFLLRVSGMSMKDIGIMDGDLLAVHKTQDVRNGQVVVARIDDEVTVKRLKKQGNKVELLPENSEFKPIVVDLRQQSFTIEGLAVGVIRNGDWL

Acinetobacter baumannii [10] = experiment: Antimicrobial activity against multidrug-resistant Acinetobacter baumannii AYE in presence of efflux pump inhibitor PAbetaN by microdilution broth method; assay type: functional
[11] = Selectivity ratio of cytotoxicity against human WI38 cells to MIC for Acinetobacter baumannii ATCC 17978; assay type: toxicity, cell-based
DNA gyrase = DNA gyrase (Staphylococcus aureus, UniProt P0A0K8+P20831); experiment: Inhibition of Staphylococcus aureus DNA gyrase using relaxed pNO1 as substrate by gel based fluorescence assay; assay type: protein-complex assay
[12] = Cytotoxicity against human WI38 cells assessed as cell viability at 20 uM measured after 24 hrs by MTT assay relative to control; assay type: cell-based, WI-38; details: read-out: Activity
Klebsiella pneumoniae [13] = experiment: Antimicrobial activity against Klebsiella pneumoniae tnkp1_lr150124p14q189 by microdilution broth method; assay type: functional
Acinetobacter baumannii [14] = experiment: Antimicrobial activity against multidrug-resistant Acinetobacter baumannii AYE by microdilution broth method; assay type: functional
[15] = Ratio of MIC for Pseudomonas aeruginosa PAO1 to MIC for Pseudomonas aeruginosa PW1783 harboring MexAB-OprM mutant; assay type: functional
[16] = Selectivity ratio of cytotoxicity against human WI38 cells to MIC for methicillin resistant Staphylococcus aureus NCTC 13616; assay type: toxicity, cell-based
Klebsiella pneumoniae [17] = experiment: Antimicrobial activity against multidrug-resistant Klebsiella pneumoniae M6 by microdilution broth method; assay type: functional
[18] = Selectivity ratio of cytotoxicity against human WI38 cells to MIC for vancomycin resistant Enterococcus faecium NCTC 12204; assay type: toxicity, cell-based
[19] = target: T2, DNA repair protein RecN (Escherichia coli) (UniProt P05824); experiment: Induction of Escherichia coli K12 MG1655 recN promotor measured at 30 mins interval for 20 hrs by fluorescence assay relative to control; details: Escherichia coli str. K-12 substr. MG1655
T2 sequence (whole entry): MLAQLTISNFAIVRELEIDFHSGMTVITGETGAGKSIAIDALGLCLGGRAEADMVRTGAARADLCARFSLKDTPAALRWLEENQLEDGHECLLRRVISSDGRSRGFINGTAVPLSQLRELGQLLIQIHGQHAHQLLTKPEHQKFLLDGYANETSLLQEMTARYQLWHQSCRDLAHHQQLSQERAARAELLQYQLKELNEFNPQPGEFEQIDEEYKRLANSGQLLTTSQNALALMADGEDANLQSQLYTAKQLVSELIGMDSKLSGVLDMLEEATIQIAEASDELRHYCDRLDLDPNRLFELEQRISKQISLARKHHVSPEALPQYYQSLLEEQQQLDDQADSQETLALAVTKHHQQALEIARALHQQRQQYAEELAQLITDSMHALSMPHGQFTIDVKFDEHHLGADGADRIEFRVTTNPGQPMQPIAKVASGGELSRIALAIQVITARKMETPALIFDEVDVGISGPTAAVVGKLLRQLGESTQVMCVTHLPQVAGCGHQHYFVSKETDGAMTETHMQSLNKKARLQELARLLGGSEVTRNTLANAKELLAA

Escherichia coli [20] = experiment: Antimicrobial activity against multidrug-resistant Escherichia coli 319238/UR by microdilution broth method; assay type: functional
Klebsiella pneumoniae [21] = experiment: Antimicrobial activity against multidrug-resistant Klebsiella pneumoniae 46704 by microdilution broth method; assay type: functional
Pseudomonas aeruginosa [22] = experiment: Antimicrobial activity against Pseudomonas aeruginosa PAO1 in presence of efflux pump inhibitor CCCP by microdilution broth method; assay type: functional
[23] = Selectivity ratio of cytotoxicity against human WI38 cells to MIC for Pseudomonas aeruginosa PAO1; assay type: toxicity, cell-based
[24] = Selectivity ratio of cytotoxicity against human WI38 cells to MIC for Klebsiella pneumoniae M6; assay type: toxicity, cell-based
Klebsiella pneumoniae [25] = experiment: Antimicrobial activity against Klebsiella pneumoniae M137K by microdilution broth method; assay type: functional
Acinetobacter baumannii [26] = experiment: Antimicrobial activity against Acinetobacter baumannii ATCC 17978 in presence of efflux pump inhibitor PAbetaN by microdilution broth method; assay type: functional
[27] = Selectivity ratio of cytotoxicity against human WI38 cells to MIC for multidrug-resistant Klebsiella pneumoniae NCTC 13368; assay type: toxicity, cell-based
Klebsiella pneumoniae [28] = experiment: Antibacterial activity against multidrug-resistant Klebsiella pneumoniae NCTC 13368 measured after 10 passages by microdilution broth method; assay type: functional
Pseudomonas aeruginosa [29] = experiment: Antimicrobial activity against Pseudomonas aeruginosa PAO1 by microdilution broth method; assay type: functional
Klebsiella pneumoniae [30] = experiment: Ratio of MIC for multidrug-resistant Klebsiella pneumoniae 16 to MIC for multidrug-resistant Klebsiella pneumoniae 16 in presence of membrane permeabilizer PMBN; assay type: functional
Pseudomonas aeruginosa [31] = experiment: Ratio of MIC for multidrug-resistant Pseudomonas aeruginosa NCTC 13437 to MIC for multidrug-resistant Pseudomonas aeruginosa NCTC 13437 in presence of membrane permeabilizer PMBN; assay type: functional
Enterococcus faecalis = experiment: Antibacterial activity against vancomycin resistant Enterococcus faecalis NCTC 12201 by microdilution broth method; assay type: functional
Burkholderia multivorans = experiment: Antimicrobial activity against multidrug-resistant Burkholderia multivorans C1962 by microdilution broth method; assay type: functional
Pseudomonas aeruginosa [32] = experiment: Ratio of MIC for Pseudomonas aeruginosa PAO1 to MIC for Pseudomonas aeruginosa PAO1 in presence of membrane permeabilizer PMBN; assay type: functional
Escherichia coli [33] = experiment: Antimicrobial activity against multidrug-resistant Escherichia coli CFI_160_KPC2 by microdilution broth method; assay type: functional

Sequence of DNA gyrase (P0A0K8 whole entry): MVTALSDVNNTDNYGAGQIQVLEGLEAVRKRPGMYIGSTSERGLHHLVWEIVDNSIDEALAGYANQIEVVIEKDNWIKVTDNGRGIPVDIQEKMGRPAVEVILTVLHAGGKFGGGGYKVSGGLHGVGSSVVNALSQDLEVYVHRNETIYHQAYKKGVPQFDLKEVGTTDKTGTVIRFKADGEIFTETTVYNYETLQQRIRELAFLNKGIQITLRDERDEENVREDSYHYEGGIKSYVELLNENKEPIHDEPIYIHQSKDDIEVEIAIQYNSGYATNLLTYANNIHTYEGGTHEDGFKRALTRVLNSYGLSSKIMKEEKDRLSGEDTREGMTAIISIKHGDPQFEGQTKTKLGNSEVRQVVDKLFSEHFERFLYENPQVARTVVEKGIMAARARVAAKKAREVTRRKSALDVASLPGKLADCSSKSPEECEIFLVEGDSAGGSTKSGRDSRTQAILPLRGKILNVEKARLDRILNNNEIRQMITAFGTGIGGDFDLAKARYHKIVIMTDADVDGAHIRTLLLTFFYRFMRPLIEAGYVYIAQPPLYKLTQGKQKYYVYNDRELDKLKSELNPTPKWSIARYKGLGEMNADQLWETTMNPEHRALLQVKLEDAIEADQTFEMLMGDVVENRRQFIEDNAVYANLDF
Sequence of DNA gyrase (P20831 whole entry): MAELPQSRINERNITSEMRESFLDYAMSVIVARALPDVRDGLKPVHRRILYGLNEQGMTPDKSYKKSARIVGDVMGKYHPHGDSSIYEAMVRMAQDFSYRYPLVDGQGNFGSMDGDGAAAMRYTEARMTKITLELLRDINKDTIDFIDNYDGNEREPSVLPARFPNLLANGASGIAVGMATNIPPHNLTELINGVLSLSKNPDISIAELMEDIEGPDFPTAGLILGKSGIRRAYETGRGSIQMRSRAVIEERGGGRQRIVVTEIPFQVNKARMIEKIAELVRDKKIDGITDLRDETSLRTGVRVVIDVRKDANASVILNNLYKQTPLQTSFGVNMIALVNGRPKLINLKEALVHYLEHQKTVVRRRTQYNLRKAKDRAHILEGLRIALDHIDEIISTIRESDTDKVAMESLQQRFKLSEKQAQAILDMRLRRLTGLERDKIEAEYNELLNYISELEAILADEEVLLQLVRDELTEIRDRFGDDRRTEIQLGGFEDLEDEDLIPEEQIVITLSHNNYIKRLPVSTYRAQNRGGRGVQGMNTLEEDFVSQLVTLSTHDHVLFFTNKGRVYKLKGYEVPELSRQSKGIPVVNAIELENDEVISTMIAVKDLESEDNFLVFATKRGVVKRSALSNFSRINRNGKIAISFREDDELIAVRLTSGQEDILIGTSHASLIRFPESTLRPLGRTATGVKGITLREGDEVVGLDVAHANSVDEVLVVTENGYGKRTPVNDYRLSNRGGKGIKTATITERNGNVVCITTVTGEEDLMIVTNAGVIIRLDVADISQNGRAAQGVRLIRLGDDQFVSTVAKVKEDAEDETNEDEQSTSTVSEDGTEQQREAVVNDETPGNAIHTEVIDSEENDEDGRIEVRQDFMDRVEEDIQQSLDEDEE

## COc1cc2c(cc1OCCCC(=O)Nc1cc(C(=O)Nc3ccc4oc(C(=O)N5CCSCC5)cc4c3)n(C)c1)N=C[C@@H]1CCCN1C2=O
Staphylococcus aureus
  MIC: 2 mg/L (≈ 2.86 µM)
Pseudomonas aeruginosa [1]
  MIC: > 32 mg/L
Pseudomonas aeruginosa [2]
  MIC: 32 mg/L
Acinetobacter baylyi
  MIC: 1 mg/L (≈ 1.43 µM)
Escherichia coli [3]
  MIC: 2 mg/L (≈ 2.86 µM)
Klebsiella pneumoniae [4]
  MIC: 4 mg/L
[5]
  MIC: 0.25 mg/L (≈ 0.358 µM)
[6]
  selectivity ratio: 10
Escherichia coli [7]
  MIC: 1 mg/L (≈ 1.43 µM)
[8]
  selectivity ratio: 100
[9]
  fold change (FC): 5 to 9
Acinetobacter baumannii [10]
  MIC: 2 mg/L
[11]
  selectivity ratio: 10
DNA gyrase
  IC50: Nd(Insoluble)
[12]
  viability at 24 h, 20 µM: > 85%
Klebsiella pneumoniae [13]
  MIC: > 128 mg/L
Acinetobacter baumannii [14]
  MIC: 2 to 4 mg/L (≈ 2.86 to 5.72 µM)
[15]
  Ratio: > 8
[16]
  selectivity ratio: 100
Klebsiella pneumoniae [17]
  MIC: 1 mg/L (≈ 1.43 µM)
[18]
  selectivity ratio: 100
[19]
  fold change (FC): 6 to 11
Escherichia coli [20]
  MIC: 1 mg/L (≈ 1.43 µM)
Klebsiella pneumoniae [21]
  MIC: 4 mg/L (≈ 5.72 µM)
Pseudomonas aeruginosa [22]
  MIC: > 32 mg/L
[23]
  selectivity ratio: 10
[24]
  selectivity ratio: 10
Klebsiella pneumoniae [25]
  MIC: 32 mg/L (≈ 45.8 µM)
Acinetobacter baumannii [26]
  MIC: 2 mg/L
[27]
  selectivity ratio: 10
Klebsiella pneumoniae [28]
  MIC: ≥ 128 mg/L
Pseudomonas aeruginosa [29]
  MIC: 32 to 128 mg/L (≈ 45.8 to 183 µM)
Klebsiella pneumoniae [30]
  Ratio: 4
Pseudomonas aeruginosa [31]
  Ratio: >=8 - 64
Enterococcus faecalis
  MIC: 0.25 mg/L (≈ 0.358 µM)
Burkholderia multivorans
  MIC: > 32 mg/L
Pseudomonas aeruginosa [32]
  Ratio: >=8 - 64
Escherichia coli [33]
  MIC: 4 mg/L (≈ 5.72 µM)

## COc1cc2c(cc1OCCCC(=O)Nc1cc(C(=O)Nc3ccc4sc(C(=O)N(C)C)cc4c3)n(C)c1)N=C[C@@H]1CCCN1C2=O
Staphylococcus aureus
  MIC: 0.06 mg/L (≈ 0.0914 µM)
Pseudomonas aeruginosa [1]
  MIC: > 32 mg/L
Pseudomonas aeruginosa [2]
  MIC: 2 mg/L
Acinetobacter baylyi
  MIC: 0.125 mg/L (≈ 0.19 µM)
Escherichia coli [3]
  MIC: 0.5 mg/L (≈ 0.761 µM)
Klebsiella pneumoniae [4]
  MIC: 0.25 mg/L
[5]
  MIC: 0.125 mg/L (≈ 0.19 µM)
[6]
  selectivity ratio: 10
Escherichia coli [7]
  MIC: 0.5 mg/L (≈ 0.761 µM)
[8]
  selectivity ratio: 100
[9]
  fold change (FC): 5 to 9
Acinetobacter baumannii [10]
  MIC: 0.25 mg/L
[11]
  selectivity ratio: 10
DNA gyrase; read-out: IC50 (converted)
  IC50: 4.81 µM
[12]
  viability at 24 h, 20 µM: > 85%
Klebsiella pneumoniae [13]
  MIC: 16 to 32 mg/L (≈ 24.4 to 48.7 µM)
Acinetobacter baumannii [14]
  MIC: 0.5 to 1 mg/L (≈ 0.761 to 1.52 µM)
[15]
  Ratio: > 8
[16]
  selectivity ratio: 100
Klebsiella pneumoniae [17]
  MIC: 1 mg/L (≈ 1.52 µM)
[18]
  selectivity ratio: 100
[19]
  fold change (FC): 6 to 11
Escherichia coli [20]
  MIC: 0.5 mg/L (≈ 0.761 µM)
Klebsiella pneumoniae [21]
  MIC: 1 mg/L (≈ 1.52 µM)
Pseudomonas aeruginosa [22]
  MIC: > 32 mg/L
[23]
  selectivity ratio: 10
[24]
  selectivity ratio: 10
Klebsiella pneumoniae [25]
  MIC: 16 to 32 mg/L (≈ 24.4 to 48.7 µM)
Acinetobacter baumannii [26]
  MIC: 0.25 mg/L
[27]
  selectivity ratio: 10
Klebsiella pneumoniae [28]
  MIC: > 32 mg/L
Pseudomonas aeruginosa [29]
  MIC: > 32 mg/L
Klebsiella pneumoniae [30]
  Ratio: 4
Pseudomonas aeruginosa [31]
  Ratio: 32 - 1000
Enterococcus faecalis
  MIC: 0.03 mg/L (≈ 0.0457 µM)
Burkholderia multivorans
  MIC: 2 mg/L (≈ 3.05 µM)
Pseudomonas aeruginosa [32]
  Ratio: >=4 - 16
Escherichia coli [33]
  MIC: 0.5 mg/L (≈ 0.761 µM)
